For orientation: pIC50 means the negative decadic logarithm of the IC50, by convention in mol/L. High values mean a low IC50, low ones a high IC50.

Drawing on BindingDB's records for doi:10.1111/j.1747-0285.2008.00745.x (University of Connecticut, 2009), this text covers IC50 for six compounds.

pIC50: −log10 of the molar value.

This assay addresses T1, Dihydrofolate reductase (Candida glabrata (strain ATCC 2001 / BCRC 20586 / JCM 3761 / NBRC 0622 / NRRL Y-65 / CBS 138), UniProt Q6FPH0).
T1 sequence (Q6FPH0 whole entry): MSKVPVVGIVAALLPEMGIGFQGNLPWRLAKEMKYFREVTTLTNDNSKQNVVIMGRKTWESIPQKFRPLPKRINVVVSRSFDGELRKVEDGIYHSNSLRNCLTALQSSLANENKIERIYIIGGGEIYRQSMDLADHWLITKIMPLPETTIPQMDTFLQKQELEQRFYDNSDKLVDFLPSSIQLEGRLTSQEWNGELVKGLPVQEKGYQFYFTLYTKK
The assay is described as follows: Enzyme Inhibition Assay. As to the method: Enzyme activity assay were performed by monitoring the rate of enzyme-dependent NADPH consumption at an absorbance of 340 nm over 5 min.

With `COc1cc(-c2ccc(C)cc2)cc([C@@H](C)C#Cc2c(C)nc(N)nc2N)c1` (racemic), the pIC50 was 9.21. The compound `COc1ccc(-c2cc(OC)cc(C(C)C#Cc3c(C)nc(N)nc3N)c2)cc1` (racemic) had a pIC50 of 8.19.

Turning to `COc1cc(-c2cc(C)cc(C)c2)cc([C@@H](C)C#Cc2c(C)nc(N)nc2N)c1` (racemic) [Biphenyl antifolate, 2], the pIC50 is 9.26. Compound `COc1cc(-c2c(C)cccc2C)cc(C(C)C#Cc2c(C)nc(N)nc2N)c1` (racemic) [Biphenyl antifolate, 6] gave a pIC50 of 8.26. In turn, `COc1cc(-c2ccc(C(C)(C)C)cc2)cc(C(C)C#Cc2c(C)nc(N)nc2N)c1` (racemic) [Biphenyl antifolate, 24] had a pIC50 of 8.00.

In turn, `COc1cc(-c2ccccc2C)cc(C(C)C#Cc2c(C)nc(N)nc2N)c1` (stereo unspecified) [5-{3-[3-methoxy-5-(2-methylphenyl)phenyl]but-1-yn-1-yl}-6-methylpyrimidine-2,4-diamine] showed a pIC50 of 8.14.
